Patent publication US9776972B2, “Pyrazole derivatives as arginine methyltransferase inhibitors and uses thereof” (priority 2013, dated 2017)
Counter-ions that a name gives are not always drawn.

Target: T1, Human CARM1 (PRMT4) (Homo sapiens, UniProt Q86X55)
T1 construct: Flag-CARM1-His; made in house; host or cells: HEK 293F cells (BacMam baculovirus)
T1 sequence (Q86X55 1-585 isoform Q86X55-1): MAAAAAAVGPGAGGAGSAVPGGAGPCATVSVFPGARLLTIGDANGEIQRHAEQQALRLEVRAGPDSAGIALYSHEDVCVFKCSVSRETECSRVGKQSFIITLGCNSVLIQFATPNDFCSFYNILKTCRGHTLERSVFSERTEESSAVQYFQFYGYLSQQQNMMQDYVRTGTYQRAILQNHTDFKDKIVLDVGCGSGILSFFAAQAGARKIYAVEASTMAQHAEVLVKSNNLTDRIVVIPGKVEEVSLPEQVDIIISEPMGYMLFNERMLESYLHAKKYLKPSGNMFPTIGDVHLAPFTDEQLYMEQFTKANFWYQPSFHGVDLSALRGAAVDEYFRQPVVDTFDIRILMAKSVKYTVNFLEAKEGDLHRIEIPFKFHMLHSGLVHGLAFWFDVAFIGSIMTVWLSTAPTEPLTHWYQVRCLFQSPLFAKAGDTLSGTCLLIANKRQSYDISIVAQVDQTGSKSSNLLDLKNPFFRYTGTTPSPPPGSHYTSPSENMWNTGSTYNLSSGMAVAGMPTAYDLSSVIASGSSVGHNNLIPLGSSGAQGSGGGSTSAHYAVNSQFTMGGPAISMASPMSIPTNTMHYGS
Experiment: CARM1 Biochemical Assay (3H-SAM Flashplate, peptide substrate)
Details: single experiment or average of multiple experiments
Description: S-adenosylmethionine (SAM), S-adenosylhomocysteine (SAH), bicine, Tween20, dimethylsulfoxide (DMSO), bovine skin gelatin (BSG), sodium butyrate and Tris(2-carboxyethyl)phosphine hydrochloride solution (TCEP) were purchased from Sigma-Aldrich at the highest level of purity possible. ^3H-SAM was purchase from American Radiolabeled Chemicals with a specific activity of 80 Ci/mmol. 384-well streptavidin Flashplates were purchased from PerkinElmer.
Peptide representative of human histone H3 residues 16-30 was synthesized with an N-terminal linker-affinity tag motif and a C-terminal amide cap by 21st Century Biochemicals. […] The sequence was Biot-Ahx-[…]-amide and contained a monomethylated arginine at position 26 (SEQ ID NO.: 14).
Recombinant baculovirus were generated according to Bac-to-Bac kit instructions (Life Technologies). […] Infections were carried out at 37° C. for 48 hours, harvested by centrifugation, and stored at −80° C. for purification.
Column was washed with 500 mM NaCl in buffer A and Flag-CARM1-His was eluted with 200 ug/ml FLAG peptide in buffer A. Pooled fractions were dialyzed in 20 mM Tris, 150 mM NaCl, 5% glycerol and 1 mM DTT, pH 7.8.
General Procedure for CARM1 Enzyme Assays on Peptide Substrates.
The assays were all performed in a buffer consisting of 20 mM Bicine (pH=7.6), 1 mM TCEP, 0.005% BSG, and 0.002% Tween 20, prepared on the day of use. […] DMSO (1 ul) was added to Columns 11, 12, 23, 24, rows A-H for the maximum signal control and 1 ul of SAH, a known product and inhibitor of CARM1, was added to columns 11, 12, 23, 24, rows I-P for the minimum signal control. A cocktail (40 ul) containing the CARM1 enzyme was added by Multidrop Combi (Thermo-Fisher). The compounds were allowed to incubate with CARM1 for 30 min at room temperature, then a cocktail (10 ul) containing ^3H-SAM and peptide was added to initiate the reaction (final volume=51 ul). […] The assays were stopped by the addition of non-radiolabeled SAM (10 ul) to a final concentration of 300 uM, which dilutes the ^3H-SAM to a level where its incorporation into the peptide substrate is no longer detectable. 50 ul of the reaction in the 384-well polypropylene plate was then transferred to a 384-well Flashplate and the biotinylated peptides were allowed to bind to the streptavidin surface for at least 1 hour before being washed once with 0.1% Tween20 in a Biotek ELx405 plate washer. The plates were then read in a PerkinElmer TopCount plate reader to measure the quantity of ^3H-labeled peptide bound to the Flashplate surface, measured as disintegrations per minute (dpm) or alternatively, referred to as counts per minute (cpm).
Where dpm=disintegrations per minute, cmpd=signal in assay well, and min and max are the respective minimum and maximum signal controls.
Where top and bottom are the normally allowed to float, but may be fixed at 100 or 0 respectively in a 3-parameter fit. The Hill Coefficient normally allowed to float but may also be fixed at 1 in a 3-parameter fit. Y is the % inhibition and X is the compound concentration.

| Structure (SMILES) | IC50 [nM] |
| --- | --- |
| CNCCN(C)Cc1c[nH]nc1-c1cccc(C#N)c1 [Compound 22] | 1370 |
| CNCCN(C)Cc1c[nH]nc1-c1cccc(OC)c1 [Compound 24] | 1210 |
| CNCCN(C)Cc1c[nH]nc1-c1ccc(OC)cc1 [Compound 25] | 1560 |
| CNCCN(C)Cc1c[nH]nc1-c1ccc(C)cc1C [Compound 29] | 6300 |
| CNCCN(C)Cc1c[nH]nc1-c1ccc(Oc2ccccc2)cc1 [Compound 37] | 15.2 |
| CNCCN(C)Cc1c[nH]nc1-c1ccc(C(=O)c2ccccc2)cc1 [Compound 45] | 42.9 |
| CNCCN(C)Cc1c[nH]nc1-c1ccc(F)cc1F [Compound 49] | 5040 |
| CNCCN(C)Cc1c[nH]nc1-c1ccc(OC)c(F)c1 [Compound 52] | 1500 |
| CNCCN(C)Cc1c[nH]nc1-c1ccc(OC)cc1OC [Compound 55] | 4200 |
| CNCCN(C)Cc1c[nH]nc1-c1cccc2ccccc12 [Compound 57] | 1310 |
| CNCCN(C)Cc1c[nH]nc1-c1ccc2ccccc2c1 [Compound 58] | 582 |
| CNCCN(C)Cc1cn(Cc2cccnc2)nc1-c1ccc(OC(C)C)cc1 [Compound 246] | 2430 |
| CNCCN(C)Cc1cnn(CC(=O)OC)c1-c1ccc(OC(C)C)cc1 [Compound 249] | 9630 |
| CNCCN(C)Cc1cn(CC(N)=O)nc1-c1ccc(OC(C)C)cc1 [Compound 251] | 2980 |
| CCn1ncc(CN(C)CCNC)c1-c1ccc(OC(C)C)cc1 [Compound 252] | 531 |
| CNCCN(C)Cc1cnn(C2CCCC2)c1-c1ccc(OC(C)C)cc1 [Compound 255] | 1170 |
| C=CC(=O)Nc1cccc(-c2[nH]ncc2CN(C)CCNC)c1 [Compound 258] | 1700 |

Continued by falling IC50, values first:

| IC50 [nM] | Structure (SMILES) |
| --- | --- |
| 8930 | CN(CCN)Cc1cnn(CCO)c1-c1ccc(F)cc1 [Compound 65] |
| 4960 | CCNC(=O)c1cccc(-c2n[nH]cc2CN(C)CCNC)c1 [Compound 43] |
| 4590 | CNCCN(C)Cc1cn(CCC(O)CO)nc1-c1ccc(F)cc1 (stereo not shown) [Compound 59] |
| 4320 | CNCCN(C)Cc1c[nH]nc1-c1cc(F)ccc1F [Compound 50] |
| 3790 | CN(CCN)Cc1cn(CCO)nc1-c1ccc(F)cc1 [Compound 66] |
| 3750 | CNCCN(C)Cc1cn(CC(=O)OC)nc1-c1ccc(OC(C)C)cc1 [Compound 248] |
| 3680 | CNCCN(C)Cc1cn(CCCC(O)CO)nc1-c1ccc(F)cc1 (stereo not shown) [Compound 30] |
| 2820 | CNCCN(C)Cc1cn(Cc2ccccn2)nc1-c1ccc(OC(C)C)cc1 [Compound 247] |
| 2340 | CNCCN(C)Cc1c[nH]nc1-c1cccc(O)c1 [Compound 26] |
| 2260 | CNCCN(C)Cc1cn(CCOC)nc1-c1ccc(OC(C)C)cc1 [Compound 253, N1-((3-(4-isopropoxyphenyl)-1-(2-methoxyethyl)-1H-pyrazol-4-yl)methyl)-N1,N2-dimethylethane-1,2-diamine hydrochloride] |
| 2090 | CNCCN(C)Cc1c[nH]nc1-c1cccc([N+](=O)[O-])c1 [Compound 21] |
| 1840 | CNCCN(C)Cc1cnn(CCCC(O)CO)c1-c1ccc(F)cc1 (stereo not shown) [Compound 31] |
| 1760 | CNCCN(C)Cc1c[nH]nc1-c1ccccc1OC [Compound 23] |
| 1710 | CNCCN(C)Cc1c[nH]nc1-c1ccc(O)cc1 [Compound 27] |
| 1380 | CNCCN(C)Cc1c[nH]nc1-c1ccc(N)cc1 [Compound 33] |
| 802 | CN(CCN)Cc1c[nH]nc1-c1ccc(C#N)cc1 [Compound 68] |
| 672 | CCN(CCN)Cc1c[nH]nc1-c1ccc(F)cc1 [Compound 62] |
| 625 | CNCCN(C)Cc1c[nH]nc1-c1ccc(F)c(F)c1 [Compound 51] |
| 571 | CNCCN(C)Cc1cn(C2CCCCC2)nc1-c1ccc(OC(C)C)cc1 [Compound 256] |
| 413 | CNCCN(C)Cc1cn(C2CCC2)nc1-c1ccc(OC(C)C)cc1 [Compound 254, N1-((1-cyclobutyl-3-(4-isopropoxyphenyl)-1H-pyrazol-4-yl)methyl)-N1,N2-dimethylethane-1,2-diamine hydrochloride] |
| 337 | CNCCN(C)Cc1c[nH]nc1-c1ccc(CO)cc1 [Compound 28] |
| 301 | CNCCN(C)Cc1cn(C)nc1-c1ccc(OC(C)C)cc1 [Compound 243, N^1-((3-(4-isopropoxyphenyl)-1-methyl-1H-pyrazol-4-yl)methyl)-N1,N2-dimethylethane-1,2-diamine] |
| 278 | CCCc1ccc(-c2n[nH]cc2CN(C)CCNC)cc1 [Compound 20] |
